Experimental findings from paper PMC8070256, “Feasibility of Developing Radiotracers for MDM2: Synthesis and Preliminary Evaluation of an ^18F-Labeled Analogue of the MDM2 Inhibitor SP-141” (Pharmaceuticals, 2021) are described below.

Values joined by “and” are separate entries in the source; they are usually repeats but may differ in a detail not shown here. Equal values may be shown once.

Data set [1] can be described thus: In vitro stability in human serum (HPLC). The class given is in vitro ADME. The conditions noted are these: 37 °C, 1, 2 and 3 h. As to the method:
Next, the in vitro stability of [^18F]1 was examined by incubating the labeled compound with human serum for up to 3 h at 37 °C, followed by HPLC analysis of the samples using gradient elution conditions.
The stability of [^18F]1 in human serum (Innovative Research Inc., Novi, MI, USA) was analyzed by HPLC using a Chromolith® Performance RP-18e column (4.6 × 100 mm, Millipore Sigma, Burlington, MA, USA), eluted with gradient mixtures of sodium acetate buffer (0.05 M, pH 5.5) and ethanol. The percentage of ethanol was kept at 5% for the first 5 min at a flow rate of 0.5 mL and then increased to 90% over 15 min at a flow rate of 1 mL/min. The stability studies were initiated by incubating human serum (0.5 mL) with [^18F]1 (6.66 MBq in 20 µL ethanol) at 37 °C. Samples (100 µL) were analyzed by HPLC after 0, 1, 2, and 3 h incubation. At each time point, the serum sample was spiked with the nonradioactive 1 (10 µg) before HPLC analysis for identity confirmation of the parent peak ([^18F]1).

The subject of data set [2] is HepG2 cells. The data set can be described thus: Cell uptake of [^18F]1 in HepG2 cells after 21 h pretreatment. The class given is cell-based, human. The conditions noted are these: vehicle-treated HepG2 cells, 1 h uptake. As to the method:
(§1) The ability of [^18F]1 to bind to MDM2 expressing human tumor cells was assessed using two wild-type p53 cell lines, MCF-7 breast adenocarcinoma, and HepG2 hepatocellular carcinoma. These cell lines have significant MDM2 expression levels and have been utilized previously for assessing potential MDM2 inhibitors, including SP-141 [12, 24, 25]. […] Thus, to examine the uptake and specificity of [^18F]1 by MDM2 expressing tumor cell lines, MCF-7 and HepG2 cells were treated with 0, 1, 5, or 10 µM SP-141 for 21 h, and then assessed for [^18F]1 uptake for 1 h.
Cell uptake studies of [^18F]1 were conducted using MCF-7 and HepG2 cell lines. […] Next, the incubation medium was removed, cells were rinsed with cold PBS (3 × 0.5 mL) and lysed using Cell Culture Lysis Reagent (0.25 mL, Promega Corporation, Madison, WI, USA) followed by a rinse with PBS (0.125 mL/well). For each well, the supernatant, PBS washes, and the cell lysate were measured for radioactivity in an automated gamma counter (Wallac Wizard™, Perkin Elmer, Waltham, MA, USA). Subsequently, cell lysates were analyzed for protein concentration using the Bradford assay (Bio-Rad, Hercules, CA, USA). Cell uptake for each well was normalized to its protein content and expressed as % uptake/mg protein. Results are presented as mean ± SD for three wells.

In data set [3] the test system is MCF-7 cells. The data set is described as follows: Cell uptake of [^18F]1 in MCF-7 cells after 21 h pretreatment. The conditions noted are these: 1 h uptake. The class given is cell-based, human. As to the method: as §1
Cell uptake studies of [^18F]1 were conducted using MCF-7 and HepG2 cell lines. Briefly, cells plated in 24-well plates (200,000/well) were treated with varying concentrations of SP-141 (1, 5, or 10 µM) or vehicle for 21 h and incubated with a fresh medium containing [^18F]1 (~18.5 kBq in 0.5 mL medium) for 1 h. Next, the incubation medium was removed, cells were rinsed with cold PBS (3 × 0.5 mL) and lysed using Cell Culture Lysis Reagent (0.25 mL, Promega Corporation, Madison, WI, USA) followed by a rinse with PBS (0.125 mL/well). For each well, the supernatant, PBS washes, and the cell lysate were measured for radioactivity in an automated gamma counter (Wallac Wizard™, Perkin Elmer, Waltham, MA, USA). Subsequently, cell lysates were analyzed for protein concentration using the Bradford assay (Bio-Rad, Hercules, CA, USA). Cell uptake for each well was normalized to its protein content and expressed as % uptake/mg protein. Results are presented as mean ± SD for three wells.

The test system of data set [4] is MCF-7 cells. The data set is described as follows: Saturation binding assay with [^18F]1 on MCF-7 cells. The arrangement: species or system human. The following applies: 30 min incubation, nonspecific binding from cells pretreated with 1 µM SP-141 for 25 h, read-out: Kd (equilibrium dissociation constant). As to the method:
Next, saturation binding assays were conducted to evaluate the binding affinity of [^18F]1 on MCF-7 cells. In these experiments, MCF-7 cells seeded in 24-well plates were incubated for 30 min with eight increasing concentrations of [^18F]1 in serial two-fold dilutions (185.5–1.4 nM). Nonspecific binding was assessed in parallel using cells that were pretreated with 1 µM SP-141 for about 25 h to induce MDM2 degradation, thereby depleting MDM2 from the cells. Uptake of [^18F]1 in SP-141-pretreated cells was considered nonspecific and was subtracted from the total binding data for untreated cells at each radiotracer concentration to calculate the equilibrium dissociation constant (Kd) by nonlinear regression analysis in Graphpad Prism®.
For the saturation binding assay with [^18F]1, MCF-7 cells plated in 24-well plates (200,000 cells/well) were treated for 25 h with vehicle (DMSO, <5%; plate #1, for total binding) or SP-141 (1 µM; plate #2, to determine nonspecific binding). […] At each concentration of [^18F]1, nonspecific binding was determined in parallel (plate #2) in cells treated with 1 µM SP-141 to induce MDM2 degradation. Specific binding data were calculated by subtracting nonspecific binding from total binding and fit using the equation “Specific binding with Hill slope” in GraphPad Prism® (GraphPad, v5.01). […]

For `[18F]CCOc1ccc2[nH]c3c(-c4cccc5ccccc45)nccc3c2c1` [[^18F]1], the “Percentage of intact [^18F]1” value in data set [1] was ~ 100%. In addition, the “[^18F]1 uptake, baseline” value in data set [2] was 67.5 %/mg protein and ~ 68 %/mg protein. The “[^18F]1 uptake” value in data set [3] (MCF-7 cells treated with SP-141 (1, 5 or 10 µM) for 21 h) is at most 18.5 ± 0.0 %/mg protein; in data set [3] (vehicle-treated control MCF-7 cells), 71.4 %/mg protein and 71.4 ± 0.0 %/mg protein. Moreover, the dissociation constant Kd in data set [4] amounted to 0.0781 µM.
